Consider 11 molecules from PMC7503225, “Repositioning Dequalinium as Potent Muscarinic Allosteric Ligand by Combining Virtual Screening Campaigns and Experimental Binding Assays” (International Journal of Molecular Sciences, 2020).

Read-outs that look alike come from different tables or passages of the source. Where only a bound is given, the exact number is not on record here.

Data set [1] has as its target T1, hM4 muscarinic receptor (Homo sapiens, UniProt P08173).
T1 construct: expressed in transfected cells; host or cells: CHO cells, stably transfected; membrane fractions
T1 sequence (P08173 1-479): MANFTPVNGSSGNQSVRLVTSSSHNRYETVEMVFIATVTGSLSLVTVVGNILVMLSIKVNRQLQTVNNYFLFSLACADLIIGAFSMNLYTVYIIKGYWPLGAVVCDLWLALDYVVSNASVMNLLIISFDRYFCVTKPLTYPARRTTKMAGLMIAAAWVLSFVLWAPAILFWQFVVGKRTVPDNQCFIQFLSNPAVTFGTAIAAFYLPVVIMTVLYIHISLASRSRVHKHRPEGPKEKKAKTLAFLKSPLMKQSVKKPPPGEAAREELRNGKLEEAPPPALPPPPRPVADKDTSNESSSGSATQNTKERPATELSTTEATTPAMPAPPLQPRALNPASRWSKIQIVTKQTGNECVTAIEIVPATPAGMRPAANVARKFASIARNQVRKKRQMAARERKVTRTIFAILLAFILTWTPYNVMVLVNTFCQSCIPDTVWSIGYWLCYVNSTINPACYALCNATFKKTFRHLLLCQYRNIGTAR
Nature of the data set: Equilibrium inhibition binding with [3H]-NMS, CHO cell membranes. The procedure: (§1) All tested compounds were purchased from Merck KGaA (Darmstadt, Germany). The radioligand binding experiments were performed with membranes from Chinese Hamster Ovary (CHO) cells stably transfected with the five cloned human muscarinic receptor subtypes (hM1-5). Membrane fractions were prepared according to the protocol, which have been previously described; membranes were stored at −80 °C until use. Nonspecific binding was defined by the radioactivity bound in the presence of 10 µM atropine.
(§2) Aliquots of membranes (25–70 µg/mL) were added and incubated for 2 h at room temperature, filtered through UniFilter GF/B plates (PerkinElmer Life and Analytical Science, Monza, Italy) using a FilterMate cell harvester (PerkinElmer Life and Analytical Science, Monza, Italy). The filters were washed several times with ice-cold MilliQ water. Then, the plates were counted in a β-counter (TopCount NXT microplate scintillation counter, PerkinElmer Life and Analytical Science, Monza, Italy).
(§3) Data points from radioligand inhibition binding curve were fitted to models using nonlinear regression equation to determine inhibitor potency (IC50) estimates, which were then converted to Ki values as appropriate.
(§4) All the results are expressed as means ± SEM obtained from 3-4 independent experiments each one performed in duplicate.

Data set [2] addresses T2, hM2 muscarinic receptor (Homo sapiens, UniProt P08172).
T2 construct: expressed in transfected cells; host or cells: CHO cells, stably transfected; membrane fractions
T2 sequence (P08172 1-466): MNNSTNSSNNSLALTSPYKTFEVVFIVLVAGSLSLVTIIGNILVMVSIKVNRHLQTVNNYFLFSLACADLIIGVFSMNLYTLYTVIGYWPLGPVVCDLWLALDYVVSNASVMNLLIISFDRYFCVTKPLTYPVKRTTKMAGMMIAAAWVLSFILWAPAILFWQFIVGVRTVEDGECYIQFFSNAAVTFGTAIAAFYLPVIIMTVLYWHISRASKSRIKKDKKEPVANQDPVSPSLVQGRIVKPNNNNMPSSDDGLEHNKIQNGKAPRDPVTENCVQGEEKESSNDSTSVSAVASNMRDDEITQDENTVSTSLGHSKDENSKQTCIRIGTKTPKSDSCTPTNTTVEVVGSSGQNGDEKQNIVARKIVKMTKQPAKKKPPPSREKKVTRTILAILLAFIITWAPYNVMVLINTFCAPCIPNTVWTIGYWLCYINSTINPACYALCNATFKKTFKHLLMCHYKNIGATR
The data set is described as above. Particulars: [3H]-NMS 0.2 nM, mean ± SEM of 3-4 experiments, read-out: pKi hM2 (converted). The procedure: as §1, §2, §3, §4

In data set [3] the target is T3, hM3 muscarinic receptor (Homo sapiens, UniProt P20309).
T3 construct: expressed in transfected cells; host or cells: CHO cells, stably transfected; membrane fractions
Described as above. The conditions noted are these: [3H]-NMS 0.2 nM, mean ± SEM of 3-4 experiments, read-out: pKi hM3 (converted). The procedure: as §1, §2, §3, §4

The target of data set [4] is T4, hM1 muscarinic receptor (Homo sapiens, UniProt P11229).
T4 construct: expressed in transfected cells; host or cells: CHO cells, stably transfected; membrane fractions
T4 sequence (P11229 1-460): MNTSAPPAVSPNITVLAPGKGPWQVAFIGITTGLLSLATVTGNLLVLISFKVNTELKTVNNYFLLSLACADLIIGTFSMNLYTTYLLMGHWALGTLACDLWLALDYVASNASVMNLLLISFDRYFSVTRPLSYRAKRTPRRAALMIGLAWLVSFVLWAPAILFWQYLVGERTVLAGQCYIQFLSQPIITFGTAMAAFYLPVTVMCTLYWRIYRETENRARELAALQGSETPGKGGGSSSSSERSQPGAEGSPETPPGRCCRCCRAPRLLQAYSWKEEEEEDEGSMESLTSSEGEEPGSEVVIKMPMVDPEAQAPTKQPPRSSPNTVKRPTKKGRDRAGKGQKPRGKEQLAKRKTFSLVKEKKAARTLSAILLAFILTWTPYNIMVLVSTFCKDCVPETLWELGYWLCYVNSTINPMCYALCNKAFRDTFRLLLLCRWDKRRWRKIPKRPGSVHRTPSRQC
The description is as above. The conditions noted are these: [3H]-NMS 0.2 nM, mean ± SEM of 3-4 experiments, read-out: pKi hM1 (converted). The protocol: as §1, §2, §3, §4

For data set [5], the target named is T5, hM5 muscarinic receptor (Homo sapiens, UniProt P08912).
T5 construct: expressed in transfected cells; host or cells: CHO cells, stably transfected; membrane fractions
T5 sequence (P08912 1-532): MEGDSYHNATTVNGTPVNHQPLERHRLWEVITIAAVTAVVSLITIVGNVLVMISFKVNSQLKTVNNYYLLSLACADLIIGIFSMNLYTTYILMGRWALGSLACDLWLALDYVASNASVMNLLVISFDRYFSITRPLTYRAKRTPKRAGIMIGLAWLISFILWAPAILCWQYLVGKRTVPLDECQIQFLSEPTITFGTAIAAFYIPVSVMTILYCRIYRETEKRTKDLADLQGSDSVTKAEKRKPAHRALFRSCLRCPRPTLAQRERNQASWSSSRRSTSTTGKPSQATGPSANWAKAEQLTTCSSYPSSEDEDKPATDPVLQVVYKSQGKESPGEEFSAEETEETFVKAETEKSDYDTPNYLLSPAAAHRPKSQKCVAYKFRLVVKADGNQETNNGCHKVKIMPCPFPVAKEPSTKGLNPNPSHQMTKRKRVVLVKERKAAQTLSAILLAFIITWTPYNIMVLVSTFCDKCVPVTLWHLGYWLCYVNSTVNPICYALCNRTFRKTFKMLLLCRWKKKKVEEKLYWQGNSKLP
The description is as above. The protocol: as §1, §2, §3, §4

Data set [6] deals with T6, [3H]-NMS-occupied muscarinic hM2 subtype (Homo sapiens, UniProt P08172).
T6 construct: expressed in transfected cells; host or cells: CHO cells, stably transfected; membrane fractions
T6 sequence (P08172 1-466): T2 sequence (P08172 1-466)
The data set is described as follows: One point kinetic (off-rate) assay of [3H]-NMS dissociation. Format: binding. Particulars: for Kd: read-out: Log Kocc hM2 (converted). The protocol: as §1
(§5) Off-rate assays were performed as described elsewhere to estimate the affinity of the ligands for the [^3H]-NMS-occupied receptor (log Kocc). Briefly, a high concentration of membranes (about 0.1 mg/mL) was incubated with a high concentration of [^3H]-NMS (2 nM) for 60 min at room temperature (mix membrane). Next, 100 µL aliquots were distributed into polypropylene tubes that were empty or in a final volume of 1 mL binding buffer with 1 µM atropine alone and in the presence of a range of concentrations of tested compound (1 nM–0.1 mM).
(§6) The effect on the radioligand dissociation of each tested ligand was determined at 0 min and at one time point, which was chosen to be ca 2.5 dissociation half-lives of [^3H]-NMS alone from each subtype receptors. Later (80 min for hM1, 20 min for hM2 and 70 min for hM5), the samples were filtered and counted as previously reported. Non specific binding was measured as previously reported.
as §4

Data set [7] has as its target T7, [3H]-NMS-occupied muscarinic hM5 subtype (Homo sapiens, UniProt P08912).
T7 construct: expressed in transfected cells; host or cells: CHO cells, stably transfected; membrane fractions
T7 sequence (P08912 1-532): T5 sequence (P08912 1-532)
The description is as above. It counts as binding. Particulars: read-out: log Kocc hM5 (converted). The procedure:
as §1, §5, §6
Data from one-point kinetic experiments were analyzed in order to obtain estimates of the affinity of an allosteric ligand for the [^3H]-NMS occupied receptor (log Kocc) in a single step, using an equation introduced in GraphPad Prism 5.02 [33, 34].
as §4

The target in data set [8] is T8, [3H]-NMS-occupied muscarinic hM1 subtype (Homo sapiens, UniProt P11229).
T8 sequence (P11229 1-460): T4 sequence (P11229 1-460)
Nature of the data set: biochemical. The protocol: as §1, §5, §6, §4

The conditions of data set [9]: ref DrugBank [16]; cited from earlier work.
Data set [10] deals with five human muscarinic receptors subtypes (hM1–hM5). The data set is described as follows: Equilibrium binding, summary statements over the five subtypes. The procedure: as §1, §2, §3, §4
[11] abbreviates: [3H]-NMS 0.2 nM, CHO membranes, mean ± SEM of 3-4 experiments, read-out: pKi hM4 (converted).
Setting [12] is: [3H]-NMS 0.2 nM, CHO membranes, mean ± SEM of 3-4 experiments, read-out: pKi hM5 (converted).

T3 sequence (P20309 whole entry): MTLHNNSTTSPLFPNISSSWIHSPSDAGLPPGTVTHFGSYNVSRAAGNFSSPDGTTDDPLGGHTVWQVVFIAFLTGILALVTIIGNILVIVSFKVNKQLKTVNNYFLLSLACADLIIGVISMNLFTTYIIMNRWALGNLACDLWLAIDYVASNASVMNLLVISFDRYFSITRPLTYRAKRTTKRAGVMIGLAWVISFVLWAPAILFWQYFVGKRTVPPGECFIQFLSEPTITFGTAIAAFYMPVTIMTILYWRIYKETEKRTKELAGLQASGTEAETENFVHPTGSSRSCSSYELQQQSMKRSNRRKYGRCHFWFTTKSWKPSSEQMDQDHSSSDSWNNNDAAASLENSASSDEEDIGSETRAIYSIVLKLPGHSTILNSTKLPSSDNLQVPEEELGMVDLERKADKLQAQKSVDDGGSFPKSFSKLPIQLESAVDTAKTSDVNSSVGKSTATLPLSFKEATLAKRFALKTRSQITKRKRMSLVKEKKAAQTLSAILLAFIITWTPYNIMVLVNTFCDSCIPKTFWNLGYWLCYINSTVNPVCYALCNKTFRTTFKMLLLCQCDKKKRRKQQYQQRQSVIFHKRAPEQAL

Turning to `C[N+](C)(CCCCCC[N+](C)(C)CCCN1C(=O)c2ccccc2C1=O)CCCN1C(=O)c2ccccc2C1=O` [W84], the Ki in data set [1] (setting [11]) is 5.01 µM; in data set [2], 6.17 µM; in [3] it was 5.5 µM; in data set [4], 0.891 µM; in [5] (setting [12]) it was 9.12 µM. In addition, in [6] (from log Kocc values), the “selectivity ratio hM2/hM1” value is listed as 4.6. In addition, the “selectivity ratio hM2/hM5” value in [6] (from log Kocc values) was determined as 52.5. In addition, the Kd in data set [6] is 0.288 µM; in data set [7], 18.2 µM; in [8], 1.62 µM.

For orientation: logP means a log measure of how a compound divides between an organic and an aqueous phase. Turning to `COCCCOc1cc(C[C@@H](C[C@H](N)[C@@H](O)C[C@H](C(=O)NCC(C)(C)C(N)=O)C(C)C)C(C)C)ccc1OC` [aliskiren], the Ki in data set [1] (setting [11]) and in data set [5] (setting [12]) was more than 100 µM each time. In addition, in [9], the lipophilicity (logP) is 3.3. Besides, the “pKi values (muscarinic subtypes overall)” value in data set [10] was “devoid of affinity for all muscarinic receptors”.

For `[H]/N=C(\N/C(=N/[H])NCCCCCCNC(=N)NC(=N)Nc1ccc(Cl)cc1)Nc1ccc(Cl)cc1` [chlorhexidine], the Ki was 1.62 µM in data set [1] (setting [11]), 2.14 µM in data set [3], 0.501 µM in data set [4] and 2.24 µM in data set [5] (setting [12]). Besides, the Kd in [7] is 186 µM; in [8], 81.3 µM. Moreover, in data set [10], the “pKi values (muscarinic subtypes overall)” value is on record as “around 6”.

`N=C(N)c1ccc(/N=N/Nc2ccc(C(=N)N)cc2)cc1` [diminazene]: the Ki in data set [1] (setting [11]) is 8.91 µM; in data set [2], 5.62 µM; in data set [3] it was 4.79 µM; in data set [4], 3.16 µM; in [5] (setting [12]), 4.79 µM. Further, in [6], the Kd was 155 µM. For the same molecule, the “pKi values (muscarinic subtypes overall)” value in data set [10] was “around 5”.

As for `CC[N+](CC)(CC)CCOc1cccc(OCC[N+](CC)(CC)CC)c1OCC[N+](CC)(CC)CC` [gallamine], the figures for the Ki in data set [1] (setting [11]) and in data set [5] (setting [12]) were 0.794 µM and 2.19 µM, respectively.

Take `CC(=O)N1CCN(c2ccc(OCC3COC(Cn4ccnc4)(c4ccc(Cl)cc4Cl)O3)cc2)CC1` (centres unmarked) [ketoconazole]: the Ki was 4.57 µM in [1] (setting [11]) and 7.94 µM in data set [5] (setting [12]).

For `CCCCCCCCCCC[C@@H](C[C@@H]1OC(=O)[C@H]1CCCCCC)OC(=O)[C@H](CC(C)C)NC=O` [orlistat], the Ki in data set [1] (setting [11]), in [2], in data set [3], in data set [4] and in data set [5] (setting [12]) was more than 100 µM each time. For the same molecule, the log partition coefficient (logP) in data set [9] is listed as 7.5. Also, the “Log Kocc hM2” value in data set [6] (Table 4, affinity estimate at [3H]-NMS-occupied receptor, one time point 20 min, mean ± SEM) is “completely inactive”. In [6], the Kd was more than 1000 µM.

With `C[n+]1ccc(-c2cc[n+](C)cc2)cc1` [paraquat], the results for the Ki in data set [1], in data set [2] and in [5] were more than 100 µM, 23.4 µM and 14.8 µM, respectively.

With `N=C(N)c1ccc(OCCCCCOc2ccc(C(=N)N)cc2)cc1` [pentamidine], the figures for the Ki in data set [1] (setting [11]) and in data set [5] (setting [12]) were 1.32 µM and 1.74 µM, respectively. In data set [7], the Kd is 182 µM.

Turning to `OCc1cc(C(O)CNCCCCCCOCCCCc2ccccc2)ccc1O` (centres unmarked) [salmeterol], the Ki in data set [1] (setting [11]) is 9.77 µM; in [3] it was 12 µM; in [4] it was 3.24 µM; in [5] (setting [12]), 12.6 µM. In addition, the log partition coefficient (logP) in [9] is given as 3.8.

As to `CC(C)(C)c1ccc(C(O)CCCN2CCC(C(O)(c3ccccc3)c3ccccc3)CC2)cc1` (centres unmarked) [terfenadine], in data set [1] (setting [11]), the Ki was 11 µM. Besides, in data set [9], the logP is on record as 5.9.
